Assay results reported in patent US12404295B2, “(Hetero)aryl-methyl-thio-beta-D-galactopyranoside derivatives” (Idorsia Pharmaceuticals Ltd, priority 2019, dated 2025).

Experiments:
human Gal-3 (hGal-3) = human Gal-3 (hGal-3) (Homo sapiens (Human), UniProt P17931); assay: competitive binding assay: biotinylated hGal-3 binding to microplate-adsorbed asialofetuin (ASF); details: Gal-3 inhibition; binding of biotinylated hGal-3 to ASF; mean values; read-out: IC50
Outline: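 Serially diluted compounds compete with biotinylated hGal-3 binding to adsorbed asialofetuin (3 hours, 4° C). After washing, streptavidin-peroxidase at 80 ng/mL for 1 hour at 4° C, with ABTS colour read-out. IC50 values are averaged over repeated runs.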

human Gal-1 (hGal-1) = human Gal-1 (hGal-1) (Homo sapiens (Human), UniProt P09382); assay: competitive binding assay: biotinylated hGal-1 binding to microplate-adsorbed asialofetuin (ASF); details: Table 15; read-out: IC50 (Galectin-1 inhibition)
human Gal-1 (hGal-1), sequence (P09382 whole entry): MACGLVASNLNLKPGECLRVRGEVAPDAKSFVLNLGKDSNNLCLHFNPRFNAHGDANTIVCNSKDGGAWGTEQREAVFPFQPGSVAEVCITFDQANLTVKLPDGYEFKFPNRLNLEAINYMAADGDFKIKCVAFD
Description: Inhibition data of the epimers R and S of selected Examples are also listed.
Evaluation of Compound Inhibitory Activity (IC50)
The inhibitory activity of compounds is determined in competitive binding assays. This spectrophotometric assay measures the binding of biotinylated human Gal-3 (hGal-3) or human Gal-1 (hGal-1), respectively, to a microplate-adsorbed glycoprotein, asialofetuin (ASF) (Proc Natl Acad Sci USA. 2013 Mar. 26; 110(13):5052-7.).
Briefly, compounds are serially diluted in DMSO (working dilutions). ASF-coated 384 well plates are supplemented with 22.8 μL/well of biotinylated hGal-3 or hGal-1 in assay buffer (i.e. 300-1000 ng/mL biotinylated hGal-3 or hGal-1) to which 1.2 μL of compound working dilutions are added and mixed.
Plates are incubated for 3 hours at 4° C., then washed with cold assay buffer (3×50 uL), incubated for 1 hour with 25 μL/well of a streptavidin-peroxidase solution (diluted in assay buffer to 80 ng/mL) at 4° C., followed by further washing steps with assay buffer (3×50 uL). Finally, 25 μL/well of ABTS substrate is added.
The calculated IC50 values may fluctuate depending on the daily assay performance. Fluctuations of this kind are known to those skilled in the art. IC50 values from several measurements are given as mean values.

human Gal-3 (hGal-3), sequence (P17931 whole entry): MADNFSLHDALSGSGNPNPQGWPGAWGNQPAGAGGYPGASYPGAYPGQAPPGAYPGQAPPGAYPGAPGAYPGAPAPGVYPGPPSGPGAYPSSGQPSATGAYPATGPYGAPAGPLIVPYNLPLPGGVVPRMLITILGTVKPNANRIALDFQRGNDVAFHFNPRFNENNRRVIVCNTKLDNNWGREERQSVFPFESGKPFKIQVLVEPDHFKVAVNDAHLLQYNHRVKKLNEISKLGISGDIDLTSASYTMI

| Structure (SMILES) | IC50 (human Gal-3 (hGal-3)) | IC50 (human Gal-1 (hGal-1)) |
| --- | --- | --- |
| CC(C)(O)[C@H](S[C@@H]1O[C@H](CO)[C@H](O)[C@H](n2cc(-c3cc(F)c(F)c(F)c3)nn2)[C@H]1O)c1ccccc1Cl [Example 2.31.111R., (2S,3R,4S,5R,6R)-2-(((R)-1-(2-Chlorophenyl)-2-hydroxy-2-methylpropyl)thio)-6-(hydroxymethyl)-4-(4-(3,4,5-trifluorophenyl)-1H-1,2,3-triazol-1-yl)tetrahydro-2H-pyran-3,5-diol] | 380 nM | 3190 nM |
| CC(C)(O)[C@@H](S[C@@H]1O[C@H](CO)[C@H](O)[C@H](n2cc(-c3cc(F)c(F)c(F)c3)nn2)[C@H]1O)c1ccccc1Cl [Example 2.31.111S., (2S,3R,4S,5R,6R)-2-(((S)-1-(2-Chlorophenyl)-2-hydroxy-2-methylpropyl)thio)-6-(hydroxymethyl)-4-(4-(3,4,5-trifluorophenyl)-1H-1,2,3-triazol-1-yl)tetrahydro-2H-pyran-3,5-diol] | 4300 nM | 30900 nM |
| CC(C)(O)C(S[C@@H]1O[C@H](CO)[C@H](O)[C@H](n2cc(-c3cc(F)c(F)c(F)c3)nn2)[C@H]1O)c1ccccc1C(F)(F)F (stereo partly drawn) [Example 2.31.112., (2S,3R,4S,5R,6R)-2-((2-Hydroxy-2-methyl-1-(2-(trifluoromethyl)phenyl)propyl)thio)-6-(hydroxymethyl)-4-(4-(3,4,5-trifluorophenyl)-1H-1,2,3-triazol-1-yl)tetrahydro-2H-pyran-3,5-diol] | 250 nM | 5230 nM |
| CC(C)(O)[C@H](S[C@@H]1O[C@H](CO)[C@H](O)[C@H](n2cc(-c3cc(F)c(F)c(F)c3)nn2)[C@H]1O)c1ccccc1C(F)(F)F [Example 2.31.112R., (2S,3R,4S,5R,6R)-2-(((R)-2-Hydroxy-2-methyl-1-(2-(trifluoromethyl)phenyl)propyl)thio)-6-(hydroxymethyl)-4-(4-(3,4,5-trifluorophenyl)-1H-1,2,3-triazol-1-yl)tetrahydro-2H-pyran-3,5-diol] | 290 nM | 2610 nM |
| CC(C)(O)[C@@H](S[C@@H]1O[C@H](CO)[C@H](O)[C@H](n2cc(-c3cc(F)c(F)c(F)c3)nn2)[C@H]1O)c1ccccc1C(F)(F)F [Example 2.31.112S., (2S,3R,4S,5R,6R)-2-(((S)-2-Hydroxy-2-methyl-1-(2-(trifluoromethyl)phenyl)propyl)thio)-6-(hydroxymethyl)-4-(4-(3,4,5-trifluorophenyl)-1H-1,2,3-triazol-1-yl)tetrahydro-2H-pyran-3,5-diol] | 7070 nM | 26400 nM |
| CC(C)(O)C(S[C@@H]1O[C@H](CO)[C@H](O)[C@H](n2cc(-c3cc(F)c(F)c(F)c3)nn2)[C@H]1O)c1cccc(Cl)c1Cl (stereo partly drawn) [Example 2.31.113., (2S,3R,4S,5R,6R)-2-((1-(2,3-Dichlorophenyl)-2-hydroxy-2-methylpropyl)thio)-6-(hydroxymethyl)-4-(4-(3,4,5-trifluorophenyl)-1H-1,2,3-triazol-1-yl)tetrahydro-2H-pyran-3,5-diol] | 460 nM | 3750 nM |
| Cc1c(F)cccc1C(S[C@@H]1O[C@H](CO)[C@H](O)[C@H](n2cc(-c3cc(F)c(F)c(F)c3)nn2)[C@H]1O)C(C)(C)O (stereo partly drawn) [Example 2.31.114., (2S,3R,4S,5R,6R)-2-((1-(3-Fluoro-2-methylphenyl)-2-hydroxy-2-methylpropyl)thio)-6-(hydroxymethyl)-4-(4-(3,4,5-trifluorophenyl)-1H-1,2,3-triazol-1-yl)tetrahydro-2H-pyran-3,5-diol] | 130 nM | 2270 nM |

The remaining lines, values ahead:

| IC50 (human Gal-3 (hGal-3)) | IC50 (human Gal-1 (hGal-1)) | Structure (SMILES) |
| --- | --- | --- |
| 5400 nM | 40900 nM | Cc1c(F)cccc1[C@H](S[C@@H]1O[C@H](CO)[C@H](O)[C@H](n2cc(-c3cc(F)c(F)c(F)c3)nn2)[C@H]1O)C(C)(C)O [Example 2.31.114S., (2S,3R,4S,5R,6R)-2-(((S)-1-(3-Fluoro-2-methylphenyl)-2-hydroxy-2-methylpropyl)thio)-6-(hydroxymethyl)-4-(4-(3,4,5-trifluorophenyl)-1H-1,2,3-triazol-1-yl)tetrahydro-2H-pyran-3,5-diol] |
| 180 nM | 1390 nM | CC(C)(O)C(S[C@@H]1O[C@H](CO)[C@H](O)[C@H](n2cc(-c3cc(F)c(F)c(F)c3)nn2)[C@H]1O)c1cccc2ccccc12 (stereo partly drawn) [Example 2.31.115., (2S,3R,4S,5R,6R)-2-((2-Hydroxy-2-methyl-1-(naphthalen-1-yl)propyl)thio)-6-(hydroxymethyl)-4-(4-(3,4,5-trifluorophenyl)-1H-1,2,3-triazol-1-yl)tetrahydro-2H-pyran-3,5-diol] |
| 170 nM | 580 nM | CC(C)(O)[C@H](S[C@@H]1O[C@H](CO)[C@H](O)[C@H](n2cc(-c3cc(F)c(F)c(F)c3)nn2)[C@H]1O)c1cccc2ccccc12 [Example 2.31.115R., (2S,3R,4S,5R,6R)-2-(((R)-2-Hydroxy-2-methyl-1-(naphthalen-1-yl)propyl)thio)-6-(hydroxymethyl)-4-(4-(3,4,5-trifluorophenyl)-1H-1,2,3-triazol-1-yl)tetrahydro-2H-pyran-3,5-diol] |
| 10300 nM | 47900 nM | CC(C)(O)[C@@H](S[C@@H]1O[C@H](CO)[C@H](O)[C@H](n2cc(-c3cc(F)c(F)c(F)c3)nn2)[C@H]1O)c1cccc2ccccc12 [Example 2.31.115S., (2S,3R,4S,5R,6R)-2-(((S)-2-Hydroxy-2-methyl-1-(naphthalen-1-yl)propyl)thio)-6-(hydroxymethyl)-4-(4-(3,4,5-trifluorophenyl)-1H-1,2,3-triazol-1-yl)tetrahydro-2H-pyran-3,5-diol] |
| 300 nM | 3780 nM | Cc1ncccc1C(S[C@@H]1O[C@H](CO)[C@H](O)[C@H](n2cc(-c3cc(F)c(F)c(F)c3)nn2)[C@H]1O)C(C)(C)O (stereo partly drawn) [Example 2.31.116., (2S,3R,4S,5R,6R)-2-((2-Hydroxy-2-methyl-1-(2-methylpyridin-3-yl)propyl)thio)-6-(hydroxymethyl)-4-(4-(3,4,5-trifluorophenyl)-1H-1,2,3-triazol-1-yl)tetrahydro-2H-pyran-3,5-diol] |
| 530 nM | 4950 nM | Cc1ccncc1C(S[C@@H]1O[C@H](CO)[C@H](O)[C@H](n2cc(-c3cc(F)c(F)c(F)c3)nn2)[C@H]1O)C(C)(C)O (stereo partly drawn) [Example 2.31.117., (2S,3R,4S,5R,6R)-2-((2-Hydroxy-2-methyl-1-(4-methylpyridin-3-yl)propyl)thio)-6-(hydroxymethyl)-4-(4-(3,4,5-trifluorophenyl)-1H-1,2,3-triazol-1-yl)tetrahydro-2H-pyran-3,5-diol] |
| 210 nM | 640 nM | CC(C)(O)[C@H](S[C@@H]1O[C@H](CO)[C@H](O)[C@H](n2cc(-c3cc(F)c(F)c(F)c3)nn2)[C@H]1O)c1cccnc1C(F)(F)F [Example 2.31.118R., (2S,3R,4S,5R,6R)-2-(((R)-2-hydroxy-2-methyl-1-(2-(trifluoromethyl)pyridin-3-yl)propyl)thio)-6-(hydroxymethyl)-4-(4-(3,4,5-trifluorophenyl)-1H-1,2,3-triazol-1-yl)tetrahydro-2H-pyran-3,5-diol] |
| 6210 nM | 8200 nM | CC(C)(O)[C@@H](S[C@@H]1O[C@H](CO)[C@H](O)[C@H](n2cc(-c3cc(F)c(F)c(F)c3)nn2)[C@H]1O)c1cccnc1C(F)(F)F [Example 2.31.118S., (2S,3R,4S,5R,6R)-2-(((S)-2-Hydroxy-2-methyl-1-(2-(trifluoromethyl)pyridin-3-yl)propyl)thio)-6-(hydroxymethyl)-4-(4-(3,4,5-trifluorophenyl)-1H-1,2,3-triazol-1-yl)tetrahydro-2H-pyran-3,5-diol] |
| 230 nM | 1750 nM | Cc1nc(C)c(C(S[C@@H]2O[C@H](CO)[C@H](O)[C@H](n3cc(-c4cc(F)c(F)c(F)c4)nn3)[C@H]2O)C(C)(C)O)nc1C (stereo partly drawn) [Example 2.31.119., (2S,3R,4S,5R,6R)-2-((2-Hydroxy-2-methyl-1-(3,5,6-trimethylpyrazin-2-yl)propyl)thio)-6-(hydroxymethyl)-4-(4-(3,4,5-trifluorophenyl)-1H-1,2,3-triazol-1-yl)tetrahydro-2H-pyran-3,5-diol] |
| 270 nM | 1150 nM | Cc1nc(C)c([C@@H](S[C@@H]2O[C@H](CO)[C@H](O)[C@H](n3cc(-c4cc(F)c(F)c(F)c4)nn3)[C@H]2O)C(C)(C)O)nc1C [Example 2.31.119R., (2S,3R,4S,5R,6R)-2-(((R)-2-Hydroxy-2-methyl-1-(3,5,6-trimethylpyrazin-2-yl)propyl)thio)-6-(hydroxymethyl)-4-(4-(3,4,5-trifluorophenyl)-1H-1,2,3-triazol-1-yl)tetrahydro-2H-pyran-3,5-diol] |
| 2630 nM | 18400 nM | Cc1nc(C)c([C@H](S[C@@H]2O[C@H](CO)[C@H](O)[C@H](n3cc(-c4cc(F)c(F)c(F)c4)nn3)[C@H]2O)C(C)(C)O)nc1C [Example 2.31.119S., (2S,3R,4S,5R,6R)-2-(((S)-2-Hydroxy-2-methyl-1-(3,5,6-trimethylpyrazin-2-yl)propyl)thio)-6-(hydroxymethyl)-4-(4-(3,4,5-trifluorophenyl)-1H-1,2,3-triazol-1-yl)tetrahydro-2H-pyran-3,5-diol] |
